# Assay results published in US10065941B2, “Aminotriazine derivative and pharmaceutical composition comprising the same” (Shionogi & Co., Ltd., priority 2013, dated 2018).
# Target: human P2X3 receptor (Homo sapiens (Human), UniProt P56373)
# Assay: Evaluation of human P2X3 receptor inhibitory activity (Test Example 1)
# Type: cell-based
# Settings: C6BU-1 cell transfected with human P2X3 receptor gene, FLIPR 384
# How it was run: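 C6BU-1 cells stably expressing human P2X3, loaded with 4 μM Fluo-3-AM 1 h at 37 °C, preincubated 5 min with test compound, then stimulated with 150 nM ATP solution (stock, pre-dispense) and monitored by FLIPR for 4 min. IC50 derived from maximum fluorescence ratio (post-ATP peak over baseline).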
# human P2X3 receptor, sequence (P56373 whole entry): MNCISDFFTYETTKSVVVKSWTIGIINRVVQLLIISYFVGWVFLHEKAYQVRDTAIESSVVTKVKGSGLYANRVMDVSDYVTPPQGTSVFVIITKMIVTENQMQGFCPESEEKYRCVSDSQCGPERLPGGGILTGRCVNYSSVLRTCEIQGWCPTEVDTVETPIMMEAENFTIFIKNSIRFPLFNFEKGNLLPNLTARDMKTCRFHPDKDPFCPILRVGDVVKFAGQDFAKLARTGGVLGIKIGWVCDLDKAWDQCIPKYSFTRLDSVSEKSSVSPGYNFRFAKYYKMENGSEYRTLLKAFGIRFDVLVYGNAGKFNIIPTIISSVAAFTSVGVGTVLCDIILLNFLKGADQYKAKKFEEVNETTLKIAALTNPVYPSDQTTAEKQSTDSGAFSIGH
row,SMILES,IC50 [nM]
1,Cc1ccc(Cn2c(=O)n(CC(C)(C)C(=O)O)c(=O)[nH]/c2=N\c2ccc(Oc3ncccc3Cl)cc2)cc1 [Compound I-118],9
2,Cc1ccc(Cn2c(=O)n([C@H]3C[C@H](C(=O)O)C3)c(=O)[nH]/c2=N\c2ccc(Oc3ccccn3)cc2)cc1 [Compound I-184],6
3,COC(=O)[C@@H](C)Cn1c(=O)[nH]/c(=N\c2ccc(Oc3ncc(C)s3)cc2)n(Cc2ccc(Cl)cc2)c1=O [Compound R-132],10
4,COC(=O)[C@@H](C)Cn1c(=O)[nH]/c(=N\c2ccc(Oc3ccc(C(F)(F)F)cn3)cc2)n(Cc2ccc(C)cc2)c1=O [Compound I-034],9
5,Cc1cc(/N=c2\[nH]c(=O)n(C[C@H](C)C(=O)O)c(=O)n2Cc2ccc(Cl)cc2)ccc1N1CCCCC1 [Compound R-142],69
6,CCn1c(=O)[nH]/c(=N\c2ccc(Oc3ccc(Cl)nc3C#N)cc2)n(Cc2ccc(Cl)cc2)c1=O [Compound R-166],48
7,CCn1c(=O)[nH]/c(=N\c2ccc(Oc3ccc(C(=O)O)c(Cl)n3)cc2)n(Cc2ccc(Cl)cc2)c1=O [Compound R-066],58
8,CCc1[nH]c2ccc(/N=c3\[nH]c(=O)n([C@@H](C)[C@@H](C)C(=O)O)c(=O)n3Cc3ccc(Cl)cc3)cc2c1C [Compound R-128],11
9,COC(=O)[C@@H](C)Cn1c(=O)[nH]/c(=N\c2ccc(Oc3ccc(OC)cn3)cc2)n(Cc2ccc(C)cc2)c1=O [Compound I-222],4
10,CC(C)(Cn1c(=O)[nH]/c(=N\c2ccc(Oc3cc(O)nc(F)c3)cc2)n(Cc2ccc(Cl)cc2)c1=O)C(=O)O [Compound R-126],10
11,COC(=O)C(C)(C)Cn1c(=O)[nH]/c(=N\c2ccc(Oc3ccc(C)cn3)cc2)n(Cc2ccc(Cl)cc2)c1=O [Compound I-055],9
12,CC(C)(Cn1c(=O)[nH]/c(=N\c2ccc(Oc3cccc(Cl)n3)cc2)n(Cc2ccc(Cl)cc2)c1=O)C(=O)O [Compound I-015],9
13,COC(=O)[C@@H](C)Cn1c(=O)[nH]/c(=N\c2ccc(Oc3cccc(F)n3)cc2)n(Cc2ccc(CF)cc2)c1=O [Compound I-209],8
14,O=C(O)Cn1c(=O)[nH]/c(=N\c2ccc(Oc3ccc(Cl)cn3)cc2)n(Cc2ccc(Cl)cc2)c1=O [Compound R-312],350
15,COC(=O)C(C)(C)Cn1c(=O)[nH]/c(=N\c2ccc(Oc3ccc(OC(F)F)cn3)cc2)n(Cc2ccc(C)cc2)c1=O [Compound I-133],8
16,Cc1ccc(Cn2c(=O)n([C@H](C)CC(=O)O)c(=O)[nH]/c2=N\c2ccc(Oc3ccccn3)cc2)cc1 [Compound I-187],8
17,COC(=O)C(C)(C)Cn1c(=O)[nH]/c(=N\c2ccc(Oc3ncccc3C(F)(F)F)cc2)n(Cc2ccc(Cl)cc2)c1=O [Compound I-031],199
18,COc1ccc(Oc2ccc(/N=c3\[nH]c(=O)n(C[C@H](C)C(=O)O)c(=O)n3Cc3ccc(Cl)cc3)cc2)nc1 [Compound I-079],5
19,COC(=O)C[C@@H](C)n1c(=O)[nH]/c(=N\c2ccc(Oc3ncccc3F)cc2)n(Cc2ccc(C)cc2)c1=O [Compound I-188],7
20,O=C(O)CCn1c(=O)[nH]/c(=N\c2ccc(Oc3ncccc3F)cc2)n(Cc2ccc(CF)cc2)c1=O [Compound R-276],42
21,COC(=O)[C@@H](C)Cn1c(=O)[nH]/c(=N\c2ccc(Oc3ccc(C)nn3)c(F)c2)n(Cc2ccc(Cl)cc2)c1=O [Compound R-174],10

row,SMILES,IC50 [nM]
1,Cc1ccc(Cn2c(=O)n([C@@H](C)[C@@H](C)C(=O)O)c(=O)[nH]/c2=N\c2ccc(Oc3ccc(F)cn3)cc2)cc1 [Compound I-105],7
2,COC(=O)CCn1c(=O)[nH]/c(=N\c2ccc(Oc3ccccn3)c(Cl)c2)n(Cc2ccc(Cl)cc2)c1=O [Compound R-300],8
3,Cc1cncc(Oc2ccc(/N=c3\[nH]c(=O)n(CC(C)(C)C(=O)O)c(=O)n3Cc3ccc(Cl)cc3)cc2)c1 [Compound R-194],13
4,C[C@@H](Cn1c(=O)[nH]/c(=N\c2ccc(Oc3nc4ccccc4s3)cc2)n(Cc2ccc(Cl)cc2)c1=O)C(=O)O [Compound R-192],4
5,COC(=O)[C@@H](C)Cn1c(=O)[nH]/c(=N\c2ccc(Oc3noc(C)n3)cc2)n(Cc2ccc(Cl)cc2)c1=O [Compound R-112],17
6,COC(=O)[C@H](C)[C@H](C)n1c(=O)[nH]/c(=N\c2ccc(Oc3ccccn3)c(C)c2)n(Cc2ccc(Cl)cc2)c1=O [Compound I-226],38
7,COC(=O)[C@@H](C)Cn1c(=O)[nH]/c(=N\c2ccc(Oc3ccccn3)c(Cl)c2)n(Cc2ccc(Cl)cc2)c1=O [Compound I-252],14
8,CCOC(=O)[C@H]1C[C@@H](Oc2ccc(/N=c3\[nH]c(=O)n(CC)c(=O)n3Cc3ccc(Cl)cc3)cc2)C1 [Compound R-062],318
9,CC(C)(Cn1c(=O)[nH]/c(=N\c2ccc(Oc3cncc(F)c3)c(F)c2)n(Cc2ccc(Cl)cc2)c1=O)C(=O)O [Compound R-121],5
10,COC(=O)CCn1c(=O)[nH]/c(=N\c2ccc(Oc3ncccc3F)cc2)n(Cc2ccc(CF)cc2)c1=O [Compound R-288],12
11,Cc1cc(/N=c2\[nH]c(=O)n(C[C@H](C)C(=O)O)c(=O)n2Cc2ccc(Cl)cc2)ccc1Oc1ccccn1 [Compound I-212],10
12,COCc1ccc(Oc2ccc(/N=c3\[nH]c(=O)n(C[C@H](C)C(=O)O)c(=O)n3Cc3ccc(C)cc3)cc2)nc1 [Compound I-254],6
13,O=C(O)c1cccc(-c2ccc(Oc3ccc(/N=c4\[nH]c(=O)[nH]c(=O)n4Cc4ccc(Cl)cc4)cc3)nc2)c1 [Compound R-003],4
14,CO[C@@H](Cn1c(=O)[nH]/c(=N\c2ccc(Oc3ccc(F)cn3)cc2)n(Cc2ccc(Cl)cc2)c1=O)C(=O)O [Compound I-124],5
15,COC(=O)C(C)(C)Cn1c(=O)[nH]/c(=N\c2ccc(N3CCOCC3)c(F)c2)n(Cc2ccc(Cl)cc2)c1=O [Compound R-107],217
16,COC(=O)[C@@H](C)Cn1c(=O)[nH]/c(=N\c2ccc(Oc3ccc(F)cn3)cc2)n(CC2CCC3(CC2)CC3)c1=O [Compound I-237],14
17,COC(=O)C(C)(C)Cn1c(=O)[nH]/c(=N\c2ccc(Oc3cccnn3)cc2)n(Cc2ccc(Cl)cc2)c1=O [Compound R-148],5
18,COC(=O)[C@H](C)[C@H](C)n1c(=O)[nH]/c(=N\c2ccc(Oc3ncc(C)s3)cc2)n(Cc2ccc(C)cc2)c1=O [Compound R-213],12
19,CCOC(=O)[C@H]1C[C@H](n2c(=O)[nH]/c(=N\c3ccc(Oc4ccccn4)cc3)n(Cc3ccc(Cl)cc3)c2=O)C1 [Compound I-170],15
20,Cc1ccc(Cn2c(=O)n([C@H]3C[C@H](C(=O)O)C3)c(=O)[nH]/c2=N\c2ccc(Oc3ccc(F)cn3)cc2)cc1 [Compound I-182],8
21,CCc1[nH]c2ccc(/N=c3\[nH]c(=O)n(C[C@H](C)C(=O)O)c(=O)n3Cc3ccc(Cl)cc3)cc2c1C [Compound R-074],13

row,SMILES,IC50 [nM]
1,COC(=O)CCn1c(=O)[nH]/c(=N\c2ccc(Oc3ccccn3)c(Cl)c2)n(Cc2ccc(C)cc2)c1=O [Compound R-301],5
2,COC(=O)C(C)(C)Cn1c(=O)[nH]/c(=N\c2ccc(Oc3ccnc(Cl)c3)cc2)n(Cc2ccc(Cl)cc2)c1=O [Compound R-087],12
3,C[C@@H](Cn1c(=O)[nH]/c(=N\c2ccc(Oc3cc(F)ncn3)cc2)n(Cc2ccc(Cl)cc2)c1=O)C(=O)O [Compound R-198],9
4,C[C@@H](C(=O)O)[C@H](C)n1c(=O)[nH]/c(=N\c2ccc(Oc3cccc(Cl)n3)cc2)n(Cc2ccc(Cl)cc2)c1=O [Compound I-016],8
5,CC(C)(Cn1c(=O)[nH]/c(=N\c2ccc(Oc3ccnc(C#N)c3)cc2)n(Cc2ccc(Cl)cc2)c1=O)C(=O)O [Compound R-108],8
6,COC(=O)[C@H](C)[C@H](C)n1c(=O)[nH]/c(=N\c2ccc(Oc3cncc(F)c3)c(C)c2)n(Cc2ccc(Cl)cc2)c1=O [Compound R-186],26
7,O=c1[nH]/c(=N\c2ccc(Oc3ccccn3)cc2)n(Cc2ccc(Cl)cc2)c(=O)n1CCCOC1CCCCO1 (stereo not shown) [Compound R-248],5
8,Cc1cc(/N=c2\[nH]c(=O)n(CC(C)(C)C(=O)O)c(=O)n2Cc2ccc(Cl)cc2)ccc1Oc1cnccn1 [Compound R-131],9
9,Cc1ccc(Cn2c(=O)n(C[C@H](C)C(=O)O)c(=O)[nH]/c2=N\c2ccc(Oc3ccc(OC(F)F)cn3)cc2)cc1 [Compound I-135],4
10,C[C@@H](Cn1c(=O)[nH]/c(=N\c2ccc(Oc3ccc(F)cn3)cc2)n(Cc2ccc(CF)cc2)c1=O)C(=O)O [Compound I-216],17
11,CCc1oc2ccc(/N=c3\[nH]c(=O)n(C[C@H](C)C(=O)O)c(=O)n3Cc3ccc(C)cc3)cc2c1C [Compound R-222],9
12,CCc1oc2ccc(/N=c3\[nH]c(=O)n([C@H]4C[C@@H](C(=O)O)C4)c(=O)n3Cc3ccc(Cl)cc3)cc2c1C [Compound R-024],18
13,C[C@@H](Cn1c(=O)[nH]/c(=N\c2ccc(Oc3cc(Cl)ccn3)cc2)n(Cc2ccc(Cl)cc2)c1=O)C(=O)O [Compound I-065],8
14,CCOC(=O)[C@H]1C[C@@H](n2c(=O)[nH]/c(=N\c3ccc(Oc4ccccn4)cc3)n(Cc3ccc(C)cc3)c2=O)C1 [Compound I-181],5
15,CC(C)(Cn1c(=O)[nH]/c(=N\c2ccc(Oc3ncns3)cc2)n(Cc2ccc(Cl)cc2)c1=O)C(=O)O [Compound R-163],14
16,CC(C)(Cn1c(=O)[nH]/c(=N\c2ccc(Oc3ccc(OC(F)F)cn3)cc2)n(Cc2ccc(Cl)cc2)c1=O)C(=O)O [Compound I-023],7
17,COC(=O)C(C)(C)Cn1c(=O)[nH]/c(=N\c2ccc(Oc3cnccn3)c(C)c2)n(Cc2ccc(Cl)cc2)c1=O [Compound R-129],7
18,C[C@@H](C(=O)O)[C@H](C)n1c(=O)[nH]/c(=N\c2ccc(Oc3ccnc(C#N)c3)cc2)n(Cc2ccc(Cl)cc2)c1=O [Compound R-212],8
19,COc1ccc(Oc2ccc(/N=c3\[nH]c(=O)n(CC(C)(C)C(=O)O)c(=O)n3Cc3ccc(Cl)cc3)cc2)nc1 [Compound I-093],16
